Values joined by “and” are separate entries in the source; they are usually repeats but may differ in a detail not shown here. Equal entries are not always repeated.
Assays:
[1] = system: cerebellar granule neurons; experiment: LK-induced death of cultured cerebellar granule neurons, viability by DAPI staining; assay type: cell-based, rat; conditions: for neuroprotection against LK-induced neuronal death, in words: overall over 1, 5 and 25 μM; for protection at doses lower than 1 μM compared with 1 μM: 0.5, 0.25 and 0.1 μM
Description: Culturing and treatments of cerebellar granule neurons: Granule neuron cultures were obtained from dissociated cerebella of 6-7 day old Wistar rats as described previously (D'Mello et al., 1993). Cells were plated in Basal Eagle's Medium (BME) supplemented with 10% fetal calf serum (FCS), 25 mM KCl, 2 mM glutamine (Invitrogen), and 100 μg/ml gentamycin in poly-L-lysine coated 24-well dishes at a density 1×10^6 cells/well. Cytosine arabinofuranoside (10 μM) was added to the culture medium 18-22 h after plating to prevent replication of nonneuronal cells. Previous immunocytochemical analyses by our lab and other investigators have shown that these cultures have high purity containing over 95% granule neurons (Thangnipon et al., 2003; Kingsbury et al., 2005).
The neuronal cultures were maintained for 7-8 days prior to treatment. For treatment, the cells were rinsed once and then maintained in low K+ medium (serum-free BME medium; referred to as LK), or in the case of control cultures, in high K+ medium (serum-free BME medium supplemented with 20 mM KCl; referred to as HK). For treatments, the chemical compounds (dissolved in dimethylsulfoxide) were added directly to LK medium at the time of the switch from HK at concentrations of 1, 5, or 25 μM. Viability was assessed 24 hours by 4′,6′-diamidino-2-phenylindole hydrochloride (DAPI) staining (see below). Each compound was tested in duplicate (at each of the concentrations) and the experiment repeated at least 3 times.
The viability status of neuronal cultures treated with HK, LK, or LK medium supplemented with various compounds was evaluated by phase contrast microscopy and quantified by staining cell nuclei with DAPI as previously described (Yalcin et al., 2003; Morrison et al., 2006; Majzadeh et al., 2007)). Briefly, the cells were fixed in 4% paraformaldehyde for 20 min at 4° C. After washing in phosphate buffered saline, diamidino-2-phenylindole hydrochloride (DAPI; 1 μg/ml in phosphate buffered saline) was added for 15 min at room-temperature and viewed under ultraviolet light (260 nm). Cells with condensed or fragmented nuclei were scored as dead. Viability has been expressed as percent of control cultures, which were switched to HK medium). Statistical analysis was performed using an unpaired, two-tailed Student's T test, compared to mean neuronal survival of control cultures receiving LK treatment.
When cultured cerebellar granule neurons are switched from HK to LK medium about 50% of the cells underwent apoptosis within 24 h (D'Mello et al., 1993). The inventors utilized this widely used and recognized model to test a total of 20 different 1,4-benzoxazine derivatives for their ability to protect against LK-induced neuronal death. Each compound was tested at 3 different doses—1 μM, 5 μM and 25 μM and viability quantified by DAPI-staining. The highest does was included to test for possible toxicity effects of the compounds. Key results were confirmed using TUNEL staining, another reliable assay of apoptosis (FIG. 1). As shown in Table 1 and FIG. 1, the present invention identifies several compounds with significant neuroprotective effect. Two of the most protective compounds are HSB-13 and HSB-22, both with Ar=3′,5′-dibromo-4′-hydroxyphenyl (FIG. 1). […] Protection with this compound is lower than that observed with HSB-13 and HSB-22 at the two lower doses. […] To examine whether a higher level of protection could be observed at doses lower than 1 μM, the analyses of these compounds was extended to doses of 0.5, 0.25, and 0.1 μM.
When cultured cerebellar granule neurons are switched to LK medium, about 50% of the cells undergo apoptosis within 24 h. In this study, a total of 20 different 1,4-benzoxazine derivatives of the structure shown in FIG. 1 were tested for their ability to protect against LK-induced death of cerebellar granule neurons. Each compound was tested at 3 different doses —1 μM, 5 μM and 25 μM. […]

[2] = target: GSK3β (Homo sapiens, UniProt P49841); conditions: stated for the reference compound, no value; cited from earlier work
GSK3β, sequence (P49841 whole entry, species assumed): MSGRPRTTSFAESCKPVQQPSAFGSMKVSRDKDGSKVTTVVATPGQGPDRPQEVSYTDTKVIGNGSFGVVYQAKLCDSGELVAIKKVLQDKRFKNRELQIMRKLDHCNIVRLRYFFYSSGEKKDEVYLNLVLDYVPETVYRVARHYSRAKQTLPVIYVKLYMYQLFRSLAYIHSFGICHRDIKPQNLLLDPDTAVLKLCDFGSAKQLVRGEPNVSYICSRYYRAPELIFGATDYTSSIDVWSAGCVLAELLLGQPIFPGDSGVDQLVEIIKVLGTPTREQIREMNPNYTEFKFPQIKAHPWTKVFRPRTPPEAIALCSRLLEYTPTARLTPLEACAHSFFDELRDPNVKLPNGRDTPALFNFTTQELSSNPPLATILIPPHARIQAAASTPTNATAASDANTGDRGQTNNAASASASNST

[3] = system: cultured neurons; conditions: Chin et al., 2004, cited from earlier work
[4] = system: 3-NP-induced mouse model of Huntington's disease; conditions: earlier work (Chin et al., 2004); cited from earlier work
[5] = Table 1, 1 μM in LK medium, 24 h, % of survival in control cultures in HK medium, LK alone 48%
[6] = Table 1, 5 μM in LK medium, 24 h, % of survival in control cultures in HK medium, LK alone 48%
[7] = Table 1, 25 μM in LK medium, 24 h, % of survival in control cultures in HK medium, LK alone 48%
[8] = Table 4, 1 μM in LK medium, % of survival in HK control cultures, LK alone 48.16±8.44%
[9] = Table 4, 5 μM in LK medium, % of survival in HK control cultures, LK alone 48.16±8.44%
[10] = Table 4, 25 μM in LK medium, % of survival in HK control cultures, LK alone 48.16±8.44%

Row | Compound | % Survival [1, 5] | % Survival [1, 6] | % Survival [1, 7] | % Survival [1, 8] | % Survival [1, 9] | % Survival [1, 10] | neuroprotection against LK-induced neuronal death, in words [1] | protection at doses lower than 1 μM compared with 1 μM [1] | inhibition of GSK3β [2] | death of cultured neurons induced by a variety of different apoptotic stimuli [3] | toxicity to cultured neurons ([3]; at higher concentrations, Johnson et al., 2005, Chen et al., 2008) | behavioral performance in mice administered with 3-nitropropionic acid [4] | striatal degeneration in mice administered with 3-nitropropionic acid [4] | % Survival ([1]; Table 4, 25 μM in LK medium, % of survival in HK control cultures, LK alone 48.16±8.44%, listed as HSB-) | protection against LK-induced neuronal death (FIG. 1) ([1]; 25 μM, 24 h, phase contrast microscopy, DAPI-staining, TUNEL-staining)
1 | O=C1Nc2ccccc2O/C1=C\c1cc(Br)cc(Br)c1 [ASK-1] | 75.3 ± 10.56% | 68.8 ± 12.99% | 69.1 ± 7.56% | 75.3 ± 10.56% | 68.8 ± 12.99% | 69.1 ± 7.56% | lack of neuroprotection | – | – | – | – | – | – | – | –
2 | S=C1Nc2ccccc2OC1=Cc1cccs1 [ASK-8] | – | 60.8 ± 2.62% | 39.3 ± 7.78% | 73.3 ± 0.79 % | 60.8 ± 2.62% | 39.3 ± 7.78% | inactive | lower | – | – | – | – | – | – | –
3 | CN1C(=S)C(=Cc2ccc[nH]2)Oc2ccccc21 [ASK-9] | – | 70.2 ± 5.32% | 65.1 ± 5.63% | 84.5% and 84.5 ± 3.30 % | 70.2 ± 5.32% | 65.1 ± 5.63% | – | lower | – | – | – | – | – | – | –
4 | COc1ccc(OC)c(C=C2Oc3ccccc3NC2=S)c1 [ASK-11] | 73.8 ± 2.31% | 90.7 ± 14.50 % | 74.0 ± 3.59% | 73.8 ± 2.31% | 90.7% and 90.7 ± 14.50 % | 74.0 ± 3.59% | significant level of protection | – | – | – | – | – | – | – | –
5 | O=C1Nc2ccc(I)cc2C1=Cc1cc(Br)c(O)c(Br)c1 [GW5074, 5-Iodo-3-[(3′,5′-dibromo-4′-hydroxyphenyl)methylene]-2-indolinone] | – | – | – | – | – | – | – | – | inhibits GSK3β weakly | completely inhibits | display toxicity | improves behavioral performance | prevents striatal degeneration | – | –
6 | CC(=O)Oc1c(Br)cc(/C=C2\Oc3ccc([N+](=O)[O-])cc3NC2=O)cc1Br [HSB-1] | 58.8 ± 10.31% | – | 63.5 ± 9.34% | 58.8 ± 10.31% | – | 63.5 ± 9.34% | – | – | – | – | – | – | – | – | –
7 | CC(=O)Oc1c(Br)cc(/C=C2\Oc3ccc(Cl)cc3NC2=O)cc1Br [HSB-2] | 44.1 ± 23.42% | 62.3 ± 15.64% | – | 44.1 ± 23.42% | 62.3 ± 15.64% | – | – | – | – | – | – | – | – | – | –
8 | CC(=O)Oc1c(Br)cc(/C=C2\Oc3ccc(C)cc3NC2=O)cc1Br [HSB-3] | 56.9 ± 11.54% | 59.6 ± 11.97% | – | 56.9 ± 11.54% | 59.6 ± 11.97% | 97.4 ± 12.98 % | – | – | – | – | – | – | – | ~97% | –
9 | Cc1ccc2c(c1)NC(=O)/C(=C/c1ccsc1)O2 [HSB-4] | – | 60.3 ± 4.47% | 61.0 ± 3.58% | 65.0 ± 4.34% | 60.3 ± 4.47% | 61.0 ± 3.58% | inactive | lower | – | – | – | – | – | – | –
10 | CC(=O)Oc1c(Br)cc(/C=C2\Oc3ccc(F)cc3NC2=O)cc1Br [HSB-5] | 65.9 ± 5.08% | 69.3 ± 9.75% | – | 65.9 ± 5.08% | 69.3 ± 9.75% | 95.6 ± 0.98 % | – | – | – | – | – | – | – | – | protective
11 | COc1cc(/C=C2\Oc3ccc(I)cc3NC2=O)cc(OC)c1OC [HSB-6] | 61.9 ± 9.07% | 72.1 ± 19.33% | 59.4 ± 13.11% | 61.9 ± 9.07% | 72.1 ± 19.33% | 59.4 ± 13.11% | lack of neuroprotection | – | – | – | – | – | – | – | –
12 | Cc1ccc2c(c1)NC(=O)/C(=C/c1ccccn1)O2 [HSB-7] | 59.4 ± 13.93% | – | 88.1 ± 2.44 % | 59.4 ± 13.93% | 59.8 ± 6.40% | 88.1 ± 2.44 % | – | – | – | – | – | – | – | – | –
13 | CN(C)c1ccc(C=C2Oc3ccccc3NC2=O)cc1 [HSB-9] | – | 68.8 ± 13.54% | 63.3 ± 1.73% | 67.3 ± 16.43% | 68.8 ± 13.54% | 63.3 ± 1.73% | – | lower | – | – | – | – | – | – | –
14 | O=C1Nc2ccccc2OC1=Cc1cccs1 [HSB-11] | 64.2 ± 12.18% | 68.8 ± 4.26% | 68.8 ± 4.49% | 64.2 ± 12.18% | 68.8 ± 4.26% | 68.8 ± 4.49% | inactive | – | – | – | – | – | – | – | –
15 | O=C1Nc2ccccc2OC1=Cc1ccsc1 [HSB-12] | 76.8 ± 5.79 % | 76.2 ± 3.42 % | 81.4 ± 9.45 % | 76.8 ± 5.79 % | 76.2 ± 3.42 % | 81.4 ± 9.45 % | inactive | – | – | – | – | – | – | – | –
16 | COc1cc(C=C2Oc3ccccc3NC2=O)cc(OC)c1OC [HSB-14] | 63.9 ± 2.26% | 70.0 ± 1.63% | 69.2 ± 5.30% | 63.9 ± 2.26% | 70.0 ± 1.63% | 69.2 ± 5.30% | – | – | – | – | – | – | – | – | –
17 | COc1cc(/C=C2\Oc3ccc(C)cc3NC2=O)cc(OC)c1OC [HSB-15] | 60.7 ± 2.76% | 66.5 ± 9.26% | 63.9 ± 3.32% | 60.7 ± 2.76% | 66.5 ± 9.26% | 63.9 ± 3.32% | – | – | – | – | – | – | – | – | –
18 | O=C1Nc2ccccc2OC1=Cc1c[nH]c2ccccc12 [HSB-20] | 52.2 ± 10.11% | 62.5 ± 3.14% | 48.3 ± 12.11% | 52.2 ± 10.11% | 62.5 ± 3.14% | 48.3 ± 12.11% | – | – | – | – | – | – | – | – | –
